Marks after values point to notes of the source that are not given here.
Experiments:
Botrytis cinerea = assay: Test E: tomato botrytis, preventive spray on tomato seedlings
Septoria nodorum = assay: Test H: wheat glum blotch, preventive spray on wheat seedlings
Method: (the causal agent of wheat glum blotch) and incubated in a saturated atmosphere at 20° C. for 48 h, and then moved to a growth chamber at 22° C. for 5 days, after which disease ratings were made.

[1] = test system: Colletotrichum orbiculare; assay: Test B: cucumber Colletotrichum anthracnose, preventive spray on cucumber seedlings
Sclerotinia sclerotiorum = assay: Test C: cucumber white mold, preventive spray on cucumber seedlings
Phytophthora infestans = assay: whole plant or invertebrate; assay type: in vivo
Pythium aphanidermatum = assay: Test A: bluegrass pythium blight, preventive spray on bluegrass seedlings
Septoria tritici = assay: Test J: wheat leaf blotch, preventive spray on wheat seedlings; assay type: in vivo
Source text: A dash (-) indicates no test results.

Rhizoctonia oryzae = assay: Test G: turf brown patch, preventive spray on creeping bent grass seedlings
Method: (the causal agent of turf brown patch) and incubated in a saturated atmosphere at 27° C. for 24 h, and then moved to a growth chamber at 27° C. for 5 days, after which disease ratings were made.

[2] = test system: Erysiphe graminis f. sp. tritici; assay: Test L: wheat powdery mildew, preventive spray on wheat seedlings
[3] = test system: Puccinia recondita f. sp. tritici; assay: Test K: wheat leaf rust, preventive spray on wheat seedlings
Plasmopara viticola = assay: Test D: grape downy mildew, spray after inoculation of grape seedlings; assay type: in vivo
Source text: Upon removal, disease ratings were made. […] A dash (-) indicates no test results.

Structure (SMILES): CC1CCCCC1n1c(-c2c(F)cccc2F)c(Cl)nc(-n2cncn2)c1=O (stereo not shown) [compound 225]
- Test E disease control rating (Botrytis cinerea; 40 ppm (*)): 100* %
- Test H disease control rating (Septoria nodorum; 40 ppm (*)): 73* %
- Test B disease control rating ([1]; 40 ppm (*)): 0* %
- Test C disease control rating (Sclerotinia sclerotiorum; 40 ppm (*)): 0* %
- Test F disease control rating (Phytophthora infestans; 40 ppm (*)): 0* %
- Test A disease control rating (Pythium aphanidermatum; 40 ppm (*)): 0* %
- Test J disease control rating (Septoria tritici; 40 ppm (*)): 100* %
- Test G disease control rating (Rhizoctonia oryzae; 40 ppm (*)): 0* %
- Test L disease control rating ([2]; 40 ppm (*)): 0* %
- Test K disease control rating ([3]; 40 ppm (*)): 73* %
- Test D disease control rating (Plasmopara viticola; 40 ppm (*)): 0* %

Structure (SMILES): CC(C)Cn1c(-c2ccccc2C(F)(F)F)c(Cl)nc(-n2cccn2)c1=O [compound 141]
- Test E disease control rating (Botrytis cinerea; 200 ppm): 92%
- Test H disease control rating (Septoria nodorum; 200 ppm): 73%
- Test B disease control rating ([1]; 200 ppm): 96%
- Test C disease control rating (Sclerotinia sclerotiorum; 200 ppm): 63%
- Test F disease control rating (Phytophthora infestans; 200 ppm): 0%
- Test A disease control rating (Pythium aphanidermatum; 200 ppm): 0%
- Test J disease control rating (Septoria tritici; 200 ppm): 99%
- Test G disease control rating (Rhizoctonia oryzae; 200 ppm): 96%
- Test L disease control rating ([2]; 200 ppm): 79%
- Test K disease control rating ([3]; 200 ppm): 60%
- Test D disease control rating (Plasmopara viticola; 200 ppm): 12%

Structure (SMILES): Cc1cccc(-c2c(Cl)nc(-n3cncn3)c(=O)n2CC(C)C)c1 [compound 247]
- Test E disease control rating (Botrytis cinerea; 40 ppm (*)): 0* %
- Test H disease control rating (Septoria nodorum; 40 ppm (*)): 0* %
- Test B disease control rating ([1]; 40 ppm (*)): 0* %
- Test C disease control rating (Sclerotinia sclerotiorum; 40 ppm (*)): 0* %
- Test F disease control rating (Phytophthora infestans; 40 ppm (*)): 0* %
- Test A disease control rating (Pythium aphanidermatum; 40 ppm (*)): 0* %
- Test J disease control rating (Septoria tritici; 40 ppm (*)): 35* %
- Test G disease control rating (Rhizoctonia oryzae; 40 ppm (*)): 0* %
- Test L disease control rating ([2]; 40 ppm (*)): 0* %
- Test K disease control rating ([3]; 40 ppm (*)): 0* %
- Test D disease control rating (Plasmopara viticola; 40 ppm (*)): 0* %

Structure (SMILES): CC(C)CCn1c(-c2c(F)cccc2F)c(Cl)nc(-n2cccn2)c1=O [compound 35]
- Test E disease control rating (Botrytis cinerea; 200 ppm): 100%
- Test H disease control rating (Septoria nodorum; 200 ppm): 100%
- Test B disease control rating ([1]; 200 ppm): 0%
- Test C disease control rating (Sclerotinia sclerotiorum; 200 ppm): 0%
- Test F disease control rating (Phytophthora infestans; 200 ppm): 0%
- Test A disease control rating (Pythium aphanidermatum; 200 ppm): 0%
- Test J disease control rating (Septoria tritici; 200 ppm): 100%
- Test G disease control rating (Rhizoctonia oryzae; 200 ppm): 90%
- Test L disease control rating ([2]; 200 ppm): 97%
- Test K disease control rating ([3]; 200 ppm): 88%
- Test D disease control rating (Plasmopara viticola; 200 ppm): 5%

Structure (SMILES): CC(C)Cn1c(-c2ccc(F)cc2)c(Cl)nc(-n2cccn2)c1=O [compound 143]
- Test E disease control rating (Botrytis cinerea; 200 ppm): 99%
- Test H disease control rating (Septoria nodorum; 200 ppm): 0%
- Test B disease control rating ([1]; 200 ppm): 0%
- Test C disease control rating (Sclerotinia sclerotiorum; 200 ppm): 0%
- Test F disease control rating (Phytophthora infestans; 200 ppm): 0%
- Test A disease control rating (Pythium aphanidermatum; 200 ppm): 0%
- Test J disease control rating (Septoria tritici; 200 ppm): 100%
- Test G disease control rating (Rhizoctonia oryzae; 200 ppm): 47%
- Test L disease control rating ([2]; 200 ppm): 0%
- Test K disease control rating ([3]; 200 ppm): 68%
- Test D disease control rating (Plasmopara viticola; 200 ppm): 12%

Structure (SMILES): CC(CS(C)(=O)=O)n1c(-c2c(F)cccc2F)c(Cl)nc(-n2cccn2)c1=O (stereo not shown) [compound 200]
- Test E disease control rating (Botrytis cinerea; 40 ppm (*)): 0* %
- Test H disease control rating (Septoria nodorum; 40 ppm (*)): 0* %
- Test B disease control rating ([1]; 40 ppm (*)): 0* %
- Test C disease control rating (Sclerotinia sclerotiorum; 40 ppm (*)): 0* %
- Test F disease control rating (Phytophthora infestans; 40 ppm (*)): 0* %
- Test A disease control rating (Pythium aphanidermatum; 40 ppm (*)): 0* %
- Test J disease control rating (Septoria tritici; 40 ppm (*)): 9* %
- Test G disease control rating (Rhizoctonia oryzae; 40 ppm (*)): 0* %
- Test L disease control rating ([2]; 40 ppm (*)): 0* %
- Test K disease control rating ([3]; 40 ppm (*)): 0* %
- Test D disease control rating (Plasmopara viticola; 40 ppm (*)): 8* %

Structure (SMILES): CCCCn1c(-c2c(F)cc(F)cc2F)c(Cl)nc(-n2nccc2C)c1=O [compound 239]
- Test E disease control rating (Botrytis cinerea; 40 ppm (*)): 0* %
- Test H disease control rating (Septoria nodorum; 40 ppm (*)): 0* %
- Test B disease control rating ([1]; 40 ppm (*)): 0* %
- Test C disease control rating (Sclerotinia sclerotiorum; 40 ppm (*)): 0* %
- Test F disease control rating (Phytophthora infestans; 40 ppm (*)): 0* %
- Test A disease control rating (Pythium aphanidermatum; 40 ppm (*)): 0* %
- Test J disease control rating (Septoria tritici; 40 ppm (*)): 19* %
- Test G disease control rating (Rhizoctonia oryzae; 40 ppm (*)): 0* %
- Test L disease control rating ([2]; 40 ppm (*)): 0* %
- Test K disease control rating ([3]; 40 ppm (*)): 0* %
- Test D disease control rating (Plasmopara viticola; 40 ppm (*)): 0* %

Structure (SMILES): CCC(C)Cn1c(-c2ccc(F)cc2Cl)c(Cl)nc(N2CCC=N2)c1=O (stereo not shown) [compound 216]
- Test E disease control rating (Botrytis cinerea; 40 ppm (*)): 100* %
- Test H disease control rating (Septoria nodorum; 40 ppm (*)): 89* %
- Test B disease control rating ([1]; 40 ppm (*)): 53* %
- Test C disease control rating (Sclerotinia sclerotiorum; 40 ppm (*)): 0* %
- Test F disease control rating (Phytophthora infestans; 40 ppm (*)): 0* %
- Test A disease control rating (Pythium aphanidermatum; 40 ppm (*)): 0* %
- Test J disease control rating (Septoria tritici; 40 ppm (*)): 97* %
- Test G disease control rating (Rhizoctonia oryzae; 40 ppm (*)): 0* %
- Test L disease control rating ([2]; 40 ppm (*)): 94* %
- Test K disease control rating ([3]; 40 ppm (*)): 94* %
- Test D disease control rating (Plasmopara viticola; 40 ppm (*)): 0* %

Structure (SMILES): CCCn1c(-c2c(F)cccc2F)c(Cl)nc(-n2cncn2)c1=O [compound 34]
- Test E disease control rating (Botrytis cinerea; 200 ppm): 100%
- Test H disease control rating (Septoria nodorum; 200 ppm): 100%
- Test B disease control rating ([1]; 200 ppm): 0%
- Test C disease control rating (Sclerotinia sclerotiorum; 200 ppm): 16%
- Test F disease control rating (Phytophthora infestans; 200 ppm): 26%
- Test A disease control rating (Pythium aphanidermatum; 200 ppm): 0%
- Test J disease control rating (Septoria tritici; 200 ppm): 97%
- Test G disease control rating (Rhizoctonia oryzae; 200 ppm): 100%
- Test L disease control rating ([2]; 200 ppm): 89%
- Test K disease control rating ([3]; 200 ppm): 99%
- Test D disease control rating (Plasmopara viticola; 200 ppm): 10%

Structure (SMILES): CCCCn1c(-c2c(F)cc(F)cc2F)c(Cl)nc(-n2cncn2)c1=O [compound 229]
- Test E disease control rating (Botrytis cinerea; 40 ppm (*)): 95* %
- Test H disease control rating (Septoria nodorum; 40 ppm (*)): 82* %
- Test B disease control rating ([1]; 40 ppm (*)): 0* %
- Test C disease control rating (Sclerotinia sclerotiorum; 40 ppm (*)): 0* %
- Test F disease control rating (Phytophthora infestans; 40 ppm (*)): 0* %
- Test A disease control rating (Pythium aphanidermatum; 40 ppm (*)): 0* %
- Test J disease control rating (Septoria tritici; 40 ppm (*)): 57* %
- Test G disease control rating (Rhizoctonia oryzae; 40 ppm (*)): 16* %
- Test L disease control rating ([2]; 40 ppm (*)): 88* %
- Test K disease control rating ([3]; 40 ppm (*)): 17* %
- Test D disease control rating (Plasmopara viticola; 40 ppm (*)): 0* %

Structure (SMILES): O=c1c(-n2cncn2)nc(Cl)c(-c2c(F)cccc2F)n1-c1ccccc1 [compound 162]
- Test E disease control rating (Botrytis cinerea; 200 ppm): 85%
- Test H disease control rating (Septoria nodorum; 200 ppm): 0%
- Test B disease control rating ([1]; 200 ppm): 9%
- Test C disease control rating (Sclerotinia sclerotiorum; 200 ppm): 0%
- Test F disease control rating (Phytophthora infestans; 200 ppm): 0%
- Test A disease control rating (Pythium aphanidermatum; 200 ppm): 0%
- Test J disease control rating (Septoria tritici; 200 ppm): 100%
- Test G disease control rating (Rhizoctonia oryzae; 200 ppm): 47%
- Test L disease control rating ([2]; 200 ppm): 0%
- Test K disease control rating ([3]; 200 ppm): 27%
- Test D disease control rating (Plasmopara viticola; 200 ppm): 8%

Structure (SMILES): CCC(C)n1c(-c2c(F)cccc2F)c(Cl)nc(-n2cncn2)c1=O (stereo not shown) [compound 32]
- Test E disease control rating (Botrytis cinerea; 200 ppm): 100%
- Test H disease control rating (Septoria nodorum; 200 ppm): 100%
- Test B disease control rating ([1]; 200 ppm): 0%
- Test C disease control rating (Sclerotinia sclerotiorum; 200 ppm): 95%
- Test F disease control rating (Phytophthora infestans; 200 ppm): 0%
- Test A disease control rating (Pythium aphanidermatum; 200 ppm): 0%
- Test J disease control rating (Septoria tritici; 200 ppm): 32%
- Test G disease control rating (Rhizoctonia oryzae; 200 ppm): 92%
- Test L disease control rating ([2]; 200 ppm): 0%
- Test K disease control rating ([3]; 200 ppm): 100%
- Test D disease control rating (Plasmopara viticola; 200 ppm): 15%

Structure (SMILES): CC(C)Cn1c(C(C)(C)C)c(Cl)nc(-n2cccn2)c1=O [compound 203]
- Test E disease control rating (Botrytis cinerea; 200 ppm): 0%
- Test H disease control rating (Septoria nodorum; 200 ppm): 0%
- Test B disease control rating ([1]; 200 ppm): 0%
- Test C disease control rating (Sclerotinia sclerotiorum; 200 ppm): 0%
- Test F disease control rating (Phytophthora infestans; 200 ppm): 0%
- Test A disease control rating (Pythium aphanidermatum; 200 ppm): 74%
- Test J disease control rating (Septoria tritici; 200 ppm): 0%
- Test G disease control rating (Rhizoctonia oryzae; 200 ppm): 0%
- Test L disease control rating ([2]; 200 ppm): 0%
- Test K disease control rating ([3]; 200 ppm): 0%
- Test D disease control rating (Plasmopara viticola; 200 ppm): 12%

Structure (SMILES): C=CCn1c(-c2c(F)cccc2F)c(Cl)nc(-n2cccn2)c1=O [compound 58]
- Test E disease control rating (Botrytis cinerea; 200 ppm): 100%
- Test H disease control rating (Septoria nodorum; 200 ppm): 100%
- Test B disease control rating ([1]; 200 ppm): 99%
- Test C disease control rating (Sclerotinia sclerotiorum; 200 ppm): 0%
- Test F disease control rating (Phytophthora infestans; 200 ppm): 0%
- Test A disease control rating (Pythium aphanidermatum; 200 ppm): 0%
- Test J disease control rating (Septoria tritici; 200 ppm): 98%
- Test G disease control rating (Rhizoctonia oryzae; 200 ppm): 92%
- Test L disease control rating ([2]; 200 ppm): 99%
- Test K disease control rating ([3]; 200 ppm): 100%
- Test D disease control rating (Plasmopara viticola; 200 ppm): 47%
